Measured values: patent publication US11851406B2, “Positive allosteric modulators of the muscarinic acetylcholine receptor M1” (Vanderbilt University, priority 2018, dated 2023)

Assays:
human mAChR M1 [1] = target: T1, human mAChR M1 (Homo sapiens, UniProt P11229); assay: mAChR M1 cell-based functional assay (calcium mobilization), PAM activity: increase in the EC20 acetylcholine response; conditions: CHO-K1 cells expressing hM1; calcium flux (Fluo-4); potentiation of EC20 acetylcholine response
T1 sequence (P11229 1-460): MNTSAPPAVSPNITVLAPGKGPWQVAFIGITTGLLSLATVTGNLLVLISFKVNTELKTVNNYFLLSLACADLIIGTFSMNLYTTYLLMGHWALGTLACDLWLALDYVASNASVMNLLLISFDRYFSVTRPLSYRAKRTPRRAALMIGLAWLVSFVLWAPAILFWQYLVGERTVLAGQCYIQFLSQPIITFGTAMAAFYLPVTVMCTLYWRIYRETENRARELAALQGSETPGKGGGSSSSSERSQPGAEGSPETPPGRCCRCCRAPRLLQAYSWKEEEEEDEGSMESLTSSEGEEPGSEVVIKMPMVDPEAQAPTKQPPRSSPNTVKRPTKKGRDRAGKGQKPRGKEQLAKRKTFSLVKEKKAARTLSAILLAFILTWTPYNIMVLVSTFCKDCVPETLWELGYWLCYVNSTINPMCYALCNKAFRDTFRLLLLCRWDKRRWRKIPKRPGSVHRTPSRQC
Source text: (§1) Chinese hamster ovary (CHO-K1) cells stably expressing rat (r)M1 were purchased from the American Type Culture Collection and cultured according to their indicated protocol. CHO cells stably expressing human (h)M2, hM3, and hM5 were described previously (Levey, et al., 1991); hM1 and hM4 cDNAs were purchased from Missouri S&T cDNA Resource; rM4 cDNA was provided by T. I. Bonner (National Institutes of Health, Bethesda, Md.). rM2 and rM3 were cloned from a rat brain cDNA library and sequence verified. hM1, rM2, rM3, hM4, and rM4 cDNAs were used to stably transfect CHO-K1 cells purchased from the American Type Culture Collection using Lipofectamine2000. To make stable rM2, hM2, rM3, hM4, and rM4 cell lines for use in calcium mobilization assays, these cells also were stably transfected with a chimeric G-protein (Gqi5) (provided by B. R. Conklin, University of California, San Francisco) using Lipofectamine 2000. rM1, hM1, rM3, hM3, rM5, and hM5 cells were grown in Ham's F-12 medium containing 10% heat-inactivated fetal bovine serum (FBS), 20 mM HEPES, and 50 μg/mL G418 sulfate. rM2-Gqi5, hM2-Gqi5, and hM4-Gqi5 cells were grown in the same medium also containing 500 μg/mL Hygromycin B. Stable rM4-Gqi5 cells were grown in DMEM containing 10% heat-inactivated FBS, 20 mM HEPES, 400 μg/mL G418 sulfate, and 500 μg/mL Hygromycin B.
(§2) For high throughput measurement of agonist-evoked increases in intracellular calcium, CHO-K1 cells stably expressing muscarinic receptors were plated in growth medium lacking G418 and hygromycin at 15,000 cells/20 μL/well in Greiner 384-well black-walled, tissue culture (TC)-treated, clear-bottom plates (VWR). Cells were incubated overnight at 37° C. and 5% CO2. The next day, cells were washed using an ELX 405 (BioTek) with four washes (80 μL) of assay buffer then aspirated to 20 μL. Next, 20 μL of 16 μM Fluo-4/acetoxymethyl ester (Invitrogen, Carlsbad, Calif.) prepared as a 2.3 mM stock in DMSO and mixed in a 1:1 ratio with 10% (w/v) Pluronic F-127 and diluted in assay buffer was added to the wells and the cell plates were incubated for 50 min at 37° C. and 5% CO2. Dye was removed by washing with the ELX 405 (four 80 μL washes of assay buffer) then aspirated to 20 μL. Compound master plates were formatted in an 11 point CRC format (1:3 dilutions) in 100% DMSO with a starting concentration of 10 mM using the BRAVO liquid handler (Agilent). Test compound CRCs were then transferred to daughter plates (240 nL) using the Echo acoustic plate reformatter (Labcyte, Sunnyvale, Calif.) and then diluted into assay buffer (40 μL) to a 2× stock using a Thermo Fisher Combi (Thermo Fisher Scientific, Waltham, Mass.).
(§3) Calcium flux was measured using the Functional Drug Screening System (FDSS) 6000 (Hamamatsu Corporation, Tokyo, Japan) as an increase in the fluorescent static ratio. Compounds were applied to cells (20 μL, 2×) using the automated system of the FDSS 6000 at 4 s into the 300 s protocol and the data were collected at 1 Hz. At 144 s into the 300 s protocol, 10 μL of an EC20 concentration of the muscarinic receptor agonist acetylcholine was added (5×), followed by the addition of 12 μL an EC80 concentration of acetylcholine at the 230 s time point (5×). Agonist activity was analyzed as a concentration-dependent increase in calcium mobilization upon compound addition. Emax values for agonist activity are expressed relative to the maximum for acetylcholine. Positive allosteric modulator activity was analyzed as a concentration-dependent increase in the EC20 acetylcholine response. Antagonist activity was analyzed as a concentration-dependent decrease in the EC80 acetylcholine response. Concentration-response curves were generated using a four-parameter logistical equation in XLfit curve fitting software (IDBS, Bridgewater, N.J.) for Excel (Microsoft, Redmond, Wash.) or Prism (GraphPad Software, Inc., San Diego, Calif.).

human mAChR M1 [2] = target: T1, human mAChR M1; assay: mAChR M1 cell-based functional assay (calcium mobilization), agonist activity upon compound addition alone; conditions: CHO-K1 cells expressing hM1; for EC50: calcium mobilization upon compound addition, no acetylcholine; for Emax: compound alone, relative to the maximum for acetylcholine
Source text: as §1, §2, §3

Row | EC50 (human mAChR M1 [1]) | Emax (human mAChR M1 [1]) | EC50 (human mAChR M1 [2]) | Emax (human mAChR M1 [2]) | Compound
1 | 2.26 µM | 86% | > 10 µM | < 5% | Cc1c(Cc2ccc(-c3ccn(C)n3)cc2)cc(C(=O)NC2CCOCC2(C)C)nc1-c1ccn(C)n1 (stereo not shown) [Compound 17, N-(3,3-dimethyltetrahydro-2H-pyran-4-yl)-5-methyl-6-(1-methyl-1H-pyrazol-3-yl)-4-(4-(1-methyl-1H-pyrazol-3-yl)benzyl)picolinamide]
2 | 1.02 µM | 85% | ≥ 10 µM | 13% | Cn1cc(-c2ccc(Cc3cc(C(=O)N[C@H]4CCOC[C@@H]4O)nc(-n4cccn4)c3)cn2)cn1 [Compound 18, N-((3R,4S)-3-hydroxytetrahydro-2H-pyran-4-yl)-4-((6-(1-methyl-1H-pyrazol-4-yl)pyridin-3-yl)methyl)-6-(1H-pyrazol-1-yl)picolinamide]
3 | 1.97 µM | 88% | > 10 µM | < 5% | Cc1nc(-c2ccc(Cc3cc(C(=O)N[C@H]4CCOC[C@@H]4O)nc(-n4cccn4)c3)cc2)co1 [Compound 19, N-((3R,4S)-3-hydroxytetrahydro-2H-pyran-4-yl)-4-(4-(2-methyloxazol-4-yl)benzyl)-6-(1H-pyrazol-1-yl)picolinamide]
4 | 2.25 µM | 61% | > 10 µM | < 5% | Cn1cc(-c2ccc(Cc3cc(C(=O)N[C@H]4CCCC[C@@H]4O)nc(-n4cccn4)c3)cn2)cn1 [Compound 20, N-((1S,2S)-2-hydroxycyclohexyl)-4-((6-(1-methyl-1H-pyrazol-4-yl)pyridin-3-yl)methyl)-6-(1H-pyrazol-1-yl)picolinamide]
5 | – | 40% | > 10 µM | < 5% | Cn1cc(-c2ccc(Cc3cc(C(=O)NC4CC5(COC5)C4)nc(-n4cccn4)c3)cn2)cn1 [Compound 21, 4-((6-(1-methyl-1H-pyrazol-4-yl)pyridin-3-yl)methyl)-6-(1H-pyrazol-1-yl)-N-(2-oxaspiro[3.3]heptan-6-yl)picolinamide]
6 | 0.634 µM | 86% | ≥ 10 µM | 11% | Cc1nc(-c2ccc(Cc3cc(C(=O)N[C@H]4CCCC[C@@H]4O)nc(-n4cccn4)c3)cc2)co1 [Compound 22, N-((1S,2S)-2-hydroxycyclohexyl)-4-(4-(2-methyloxazol-4-yl)benzyl)-6-(1H-pyrazol-1-yl)picolinamide]
7 | 6.25 µM | 69% | > 10 µM | < 5% | Cc1nc(-c2ccc(Cc3cc(C(=O)NC4CC5(COC5)C4)nc(-n4cccn4)c3)cc2)co1 [Compound 23, 4-(4-(2-methyloxazol-4-yl)benzyl)-6-(1H-pyrazol-1-yl)-N-(2-oxaspiro[3.3]heptan-6-yl)picolinamide]
8 | 4.91 µM | 78% | > 10 µM | < 5% | Cc1nc(-c2ccc(Cc3cc(C(=O)N[C@H]4CCC[C@@H]4O)nc(-n4cccn4)c3)cc2)co1 [Compound 24, N-((1S,2S)-2-hydroxycyclopentyl)-4-(4-(2-methyloxazol-4-yl)benzyl)-6-(1H-pyrazol-1-yl)picolinamide]
9 | – | 40% | > 10 µM | < 5% | Cc1nc(-c2ccc(Cc3cc(C(=O)N[C@H]4CC[C@@H]4O)nc(-n4cccn4)c3)cc2)co1 [Compound 25, N-((1S,2S)-2-hydroxycyclobutyl)-4-(4-(2-methyloxazol-4-yl)benzyl)-6-(1H-pyrazol-1-yl)picolinamide]
10 | – | 47% | > 10 µM | 5% | Cn1cc(-c2ccc(Cc3cc(C(=O)NC4CCOCC4)nc(-n4cccn4)c3)cn2)cn1 [Compound 26, 4-((6-(1-methyl-1H-pyrazol-4-yl)pyridin-3-yl)methyl)-6-(1H-pyrazol-1-yl)-N-(tetrahydro-2H-pyran-4-yl)picolinamide]
11 | – | 62% | > 10 µM | 6% | Cc1nc(-c2ccc(Cc3cc(C(=O)NC4CCOCC4)nc(-n4cccn4)c3)cc2)co1 [Compound 27, 4-(4-(2-methyloxazol-4-yl)benzyl)-6-(1H-pyrazol-1-yl)-N-(tetrahydro-2H-pyran-4-yl)picolinamide]
12 | 1.07 µM | 78% | > 10 µM | 7% | Cn1ccc(-c2ccc(Cc3cc(C(=O)N[C@H]4CCOC[C@@H]4O)nc(-n4cccn4)c3)cc2)n1 [Compound 28, N-((3R,4S)-3-hydroxytetrahydro-2H-pyran-4-yl)-4-(4-(1-methyl-1H-pyrazol-3-yl)benzyl)-6-(1H-pyrazol-1-yl)picolinamide]
13 | 2.1 µM | 73% | > 10 µM | < 5% | Cn1ccc(-c2ccc(Cc3cc(C(=O)N[C@H]4CCCC[C@@H]4O)nc(-n4cccn4)c3)cc2)n1 [Compound 29, N-((1S,2S)-2-hydroxycyclohexyl)-4-(4-(1-methyl-1H-pyrazol-3-yl)benzyl)-6-(1H-pyrazol-1-yl)picolinamide]
14 | – | 65% | > 10 µM | < 5% | Cn1ccc(-c2ccc(Cc3cc(C(=O)NC4CCOCC4)nc(-n4cccn4)c3)cc2)n1 [Compound 30, 4-(4-(1-methyl-1H-pyrazol-3-yl)benzyl)-6-(1H-pyrazol-1-yl)-N-(tetrahydro-2H-pyran-4-yl)picolinamide]
15 | – | 56% | > 10 µM | < 5% | Cn1ccc(-c2ccc(Cc3cc(C(=O)NC4CC5(COC5)C4)nc(-n4cccn4)c3)cc2)n1 [Compound 31, 4-(4-(1-methyl-1H-pyrazol-3-yl)benzyl)-6-(1H-pyrazol-1-yl)-N-(2-oxaspiro[3.3]heptan-6-yl)picolinamide]
16 | – | 46% | > 10 µM | < 5% | Cn1ccc(-c2ccc(Cc3cc(C(=O)N[C@H]4CC[C@@H]4O)nc(-n4cccn4)c3)cc2)n1 [Compound 32, N-((1S,2S)-2-hydroxycyclobutyl)-4-(4-(1-methyl-1H-pyrazol-3-yl)benzyl)-6-(1H-pyrazol-1-yl)picolinamide]
17 | 5.51 µM | 69% | > 10 µM | < 5% | Cn1ccc(-c2ccc(Cc3cc(C(=O)N[C@H]4CCC[C@@H]4O)nc(-n4cccn4)c3)cc2)n1 [Compound 33, N-((1S,2S)-2-hydroxycyclopentyl)-4-(4-(1-methyl-1H-pyrazol-3-yl)benzyl)-6-(1H-pyrazol-1-yl)picolinamide]
